Consider 21 molecules from patent publication US10519134B2, “Pyrazole compounds and methods of making and using same” (Lundbeck La Jolla Research Center, Inc., priority 2015, dated 2019).

The target in one test is T1, MAGL (Mus musculus, UniProt O35678).
T1 construct: Proteomes (mouse brain membrane fraction or cell lysates); from tissue; host or cells: mouse brain membrane fraction (or cell lysates)
T1 sequence (O35678 1-303): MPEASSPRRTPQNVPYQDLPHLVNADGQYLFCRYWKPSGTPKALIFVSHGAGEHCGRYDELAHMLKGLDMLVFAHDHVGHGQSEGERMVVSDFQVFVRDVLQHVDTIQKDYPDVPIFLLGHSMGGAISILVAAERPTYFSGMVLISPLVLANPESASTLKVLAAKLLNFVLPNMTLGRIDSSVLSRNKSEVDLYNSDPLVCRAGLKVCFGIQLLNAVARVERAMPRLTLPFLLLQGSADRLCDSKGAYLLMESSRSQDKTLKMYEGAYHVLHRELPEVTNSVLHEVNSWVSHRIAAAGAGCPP
The test is described as follows: In vitro competitive activity-based protein profiling (mouse), MAGL gel band. Type of test: biochemical. To be noted: for IC50: mouse; for inhibition at 1 µM: read-out: MAGL % inh. 1 μM. In a few lines: (§1)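 Residual enzyme activity is taken from in-gel fluorescence after SDS-PAGE. Proteome from mouse brain membranes or cell lysates (total protein 1.0 mg/mL) sees inhibitor for 30 min, then FP-Rh or HT-01 probe (50 μM DMSO stock) for 30 min, both steps at 37 °C.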

The target in another test is T2, FAAH (Mus musculus, UniProt O08914).
T2 construct: Proteomes (mouse brain membrane fraction or cell lysates); from tissue; host or cells: mouse brain membrane fraction (or cell lysates)
T2 sequence (O08914 1-579): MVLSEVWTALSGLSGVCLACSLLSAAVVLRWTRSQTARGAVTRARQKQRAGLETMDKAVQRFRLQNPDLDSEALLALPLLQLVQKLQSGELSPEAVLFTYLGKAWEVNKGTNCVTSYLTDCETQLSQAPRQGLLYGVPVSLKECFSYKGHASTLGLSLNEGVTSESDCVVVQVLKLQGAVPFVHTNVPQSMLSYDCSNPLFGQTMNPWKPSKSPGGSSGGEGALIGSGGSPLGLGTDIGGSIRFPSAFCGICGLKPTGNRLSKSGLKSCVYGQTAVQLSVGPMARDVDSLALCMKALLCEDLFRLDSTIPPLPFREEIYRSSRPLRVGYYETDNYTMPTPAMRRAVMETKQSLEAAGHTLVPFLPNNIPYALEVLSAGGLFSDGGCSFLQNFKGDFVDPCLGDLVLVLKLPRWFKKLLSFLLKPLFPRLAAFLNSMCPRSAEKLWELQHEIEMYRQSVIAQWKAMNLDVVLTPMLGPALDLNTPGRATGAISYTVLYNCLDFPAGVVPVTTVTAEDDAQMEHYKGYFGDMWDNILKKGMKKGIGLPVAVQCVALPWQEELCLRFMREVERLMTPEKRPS
The test is described as follows: In vitro competitive activity-based protein profiling (mouse), FAAH gel band. Type of test: biochemical. To be noted: for IC50: mouse; for inhibition at 1 µM: read-out: FAAH % inh. 1 μM. The method in brief: as §1

For `CS(=O)(=O)Nc1ccn(C(=O)N2CCC3(CCCN3Cc3cccc(N4CCCC4)c3Cl)CC2)n1` [Example 141, N-(1-(1-(2-chloro-3-(pyrrolidin-1-yl)benzyl)-1,8-diazaspiro[4.5]decane-8-carbonyl)-1H-pyrazol-3-yl) methanesulfonamide], on MAGL, the IC50 lay within 100 to 1000 nM and the inhibition at 1 µM was ≥ 75%. Besides, on FAAH, the concentration for half-maximal inhibition (IC50) lay in the range of 1000 to 10000 nM and the inhibition at 1 µM was 0 to 25%.
Turning to `CS(=O)(=O)Nc1ccn(C(=O)N2CCC3(CCCN3Cc3cccc(N4CCOCC4)c3Cl)CC2)n1` [Example 143, N-(1-(1-(2-chloro-3-morpholinobenzyl)-1,8-diazaspiro[4.5]decane-8-carbonyl)-1H-pyrazol-3-yl) methanesulfonamide], the results for the inhibition at 1 µM on MAGL and at FAAH were 50 to 75% and 0 to 25%, respectively.
For `CS(=O)(=O)Nc1ccn(C(=O)N2CCC3(CCCN3Cc3cccc(N4CCCCC4)c3Cl)CC2)n1` [Example 144, N-(1-(1-(2-chloro-3-(piperidin-1-yl)benzyl)-1,8-diazaspiro[4.5]decane-8-carbonyl)-1H-pyrazol-3-yl) methanesulfonamide], the IC50 on MAGL lay in the range of 100 to 1000 nM; at FAAH, 1000 to 10000 nM. The inhibition at 1 µM on MAGL was ≥ 75%; on FAAH it was 0 to 25%.
For `CS(=O)(=O)Nc1ccn(C(=O)N2CCC3(CCCN3Cc3cccc(N4CC5CCC(C4)O5)c3Cl)CC2)n1` [Example 145, N-(1-(1-(3-(8-oxa-3-azabicyclo[3.2.1]octan-3-yl)-2-chlorobenzyl)-1,8-diazaspiro[4.5]decane-8-carbonyl)-1H-pyrazol-3-yl) methanesulfonamide] the same measures were 100 to 1000 nM, 1000 to 10000 nM, ≥ 75% and 0 to 25%.
As to `Cc1ccc(CN2CCN(C(=O)n3ccc(NS(C)(=O)=O)n3)CC2)c(N2CCOCC2)c1` [Example 147, N-(1-(4-(4-methyl-2-morpholinobenzyl)piperazine-1-carbonyl)-1H-pyrazol-3-yl) methanesulfonamide], the figures for the inhibition at 1 µM on MAGL and at FAAH were ≥ 75% and 0 to 25%, respectively.
As to `CS(=O)(=O)Nc1ccn(C(=O)N2CCC3(CCCN3Cc3cccc(Cl)c3)CC2)n1` [Example 148, N-(1-(1-(3-chlorobenzyl)-1,8-diazaspiro[4.5]decane-8-carbonyl)-1H-pyrazol-3-yl)methanesulfonamide], the inhibition at 1 µM on MAGL and at FAAH was 0 to 25% throughout.
On to `Cc1c(CN2CCCC23CCN(C(=O)n2ccc(NS(C)(=O)=O)n2)CC3)cccc1N1CC2CCC(C1)O2` [Example 149, N-(1-(1-(3-(8-oxa-3-azabicyclo[3.2.1]octan-3-yl)-2-methylbenzyl)-1,8-diazaspiro[4.5]decane-8-carbonyl)-1H-pyrazol-3-yl) methanesulfonamide], for which the inhibition at 1 µM lay in the range of 50 to 75% on MAGL and 0 to 25% on FAAH.
`Cc1cc(-c2ccccc2)ccc1CN1CCN(C(=O)n2ccc(NS(C)(=O)=O)n2)CC1` [Example 150, N-(1-(4-((3-methyl-[1,1′-biphenyl]-4-yl)methyl)piperazine-1-carbonyl)-1H-pyrazol-3-yl) methanesulfonamide]: on MAGL, the 50% inhibitory concentration (IC50) was 100 to 1000 nM and the inhibition at 1 µM was ≥ 75%. On FAAH, the IC50 fell in the range of 100 to 1000 nM and the inhibition at 1 µM was ≥ 75%.
With `COc1cc(-c2ccccc2)ccc1CN1CCN(C(=O)n2ccc(NS(C)(=O)=O)n2)CC1` [Example 151, N-(1-(4-((3-methoxy-[1,1′-biphenyl]-4-yl)methyl)piperazine-1-carbonyl)-1H-pyrazol-3-yl) methanesulfonamide], the results for the inhibition at 1 µM at MAGL and on FAAH were ≥ 75% and 25 to 50%, respectively.
For `CS(=O)(=O)Nc1ccn(C(=O)N2CCN(Cc3ccc(C(F)(F)F)c(N4CCCC4)c3)CC2)n1` [Example 153, N-(1-(4-(3-(pyrrolidin-1-yl)-4-(trifluoromethyl)benzyl)piperazine-1-carbonyl)-1H-pyrazol-3-yl) methanesulfonamide] the same measures were ≥ 75% and 0 to 25%.
For `CS(=O)(=O)Nc1ccn(C(=O)N2CCN(Cc3ccc(C(F)(F)F)c(Cl)c3)CC2)n1` [Example 154, N-(1-(4-(3-chloro-4-(trifluoromethyl)benzyl)piperazine-1-carbonyl)-1H-pyrazol-3-yl) methanesulfonamide] the same measures were ≥ 75% and 0 to 25%.
For `CS(=O)(=O)Nc1ccn(C(=O)N2CCN(Cc3cc(N4CCOCC4)cc(C(F)(F)F)c3)CC2)n1` [Example 155, N-(1-(4-(3-morpholino-5-(trifluoromethyl)benzyl)piperazine-1-carbonyl)-1H-pyrazol-3-yl) methanesulfonamide] the same measures were ≥ 75% and 0 to 25%.
On to `CS(=O)(=O)Nc1ccn(C(=O)N2CCN(Cc3ccc(N4CCOCC4)cc3C(F)(F)F)CC2)n1` [Example 157, N-(1-(4-(4-morpholino-2-(trifluoromethyl)benzyl)piperazine-1-carbonyl)-1H-pyrazol-3-yl) methanesulfonamide], for which the values for the inhibition at 1 µM on MAGL and on FAAH were 25 to 50% and 0 to 25%, respectively.
Consider `CS(=O)(=O)Nc1ccn(C(=O)N2CCN(Cc3ccc(-c4ccccc4)cc3Cl)CC2)n1` [Example 158, N-(1-(4-((3-chloro-[1,1′-biphenyl]-4-yl)methyl)piperazine-1-carbonyl)-1H-pyrazol-3-yl) methanesulfonamide], for which the IC50 is ≤ 100 nM at MAGL and 100 to 1000 nM at FAAH. Besides, the inhibition at 1 µM on MAGL and on FAAH was ≥ 75% each time.
As for `CS(=O)(=O)Nc1ccn(C(=O)N2CCC3(CCCN3Cc3ccc(C(F)(F)F)c(N4CCCC4)c3)CC2)n1` [Example 160, N-(1-(1-(3-(pyrrolidin-1-yl)-4-(trifluoromethyl)benzyl)-1,8-diazaspiro[4.5]decane-8-carbonyl)-1H-pyrazol-3-yl) methanesulfonamide], the inhibition at 1 µM is ≥ 75% on MAGL and 0 to 25% on FAAH.
For `CS(=O)(=O)Nc1ccn(C(=O)N2CCC3(CCCN3Cc3cc(N4CCOCC4)cc(C(F)(F)F)c3)CC2)n1` [Example 162, N-(1-(1-(3-morpholino-5-(trifluoromethyl)benzyl)-1,8-diazaspiro[4.5]decane-8-carbonyl)-1H-pyrazol-3-yl) methanesulfonamide] the same measures were ≥ 75% and 0 to 25%.
For `CS(=O)(=O)Nc1ccn(C(=O)N2CCC3(CCCN3Cc3cc(N4CCCC4)cc(C(F)(F)F)c3)CC2)n1` [Example 163, N-(1-(1-(3-(pyrrolidin-1-yl)-5-(trifluoromethyl)benzyl)-1,8-diazaspiro[4.5]decane-8-carbonyl)-1H-pyrazol-3-yl) methanesulfonamide] the same measures were ≥ 75% and 0 to 25%.
Regarding `CS(=O)(=O)Nc1ccn(C(=O)N2CCC3(CCCN3Cc3ccc(N4CCOCC4)cc3C(F)(F)F)CC2)n1` [Example 164, N-(1-(1-(4-morpholino-2-(trifluoromethyl)benzyl)-1,8-diazaspiro[4.5]decane-8-carbonyl)-1H-pyrazol-3-yl)methanesulfonamide], the inhibition at 1 µM on MAGL and at FAAH was 0 to 25% throughout.
Regarding `CS(=O)(=O)Nc1ccn(C(=O)N2CCN(Cc3ccc(C(F)(F)F)c(N4CCOCC4)c3)CC2)n1` [Example 168, N-(1-(4-(3-morpholino-4-(trifluoromethyl)benzyl)piperazine-1-carbonyl)-1H-pyrazol-3-yl) methanesulfonamide], the results for the inhibition at 1 µM at MAGL and on FAAH were ≥ 75% and 0 to 25%, respectively.
For `CS(=O)(=O)Nc1ccn(C(=O)N2CCN(Cc3ccc(N4CCC(C(=O)O)CC4)c(C(F)(F)F)c3)CC2)n1` [Example 169, 1-(4-((4-(3-(methylsulfonamido)-1H-pyrazole-1-carbonyl)piperazin-1-yl)methyl)-2-(trifluoromethyl)phenyl)piperidine-4-carboxylic acid] the same measures were 0 to 25% and 0 to 25%.
Consider `CS(=O)(=O)Nc1ccn(C(=O)N2CCN(Cc3ccc(N4CCOCC4)c(Cl)c3)CC2)n1` [Example 170, N-(1-(4-(3-chloro-4-morpholinobenzyl)piperazine-1-carbonyl)-1H-pyrazol-3-yl) methanesulfonamide], for which the values for the inhibition at 1 µM on MAGL and at FAAH were 25 to 50% and 0 to 25%, respectively.
